Measured values as given in publication PMC10436550, “Subacute toxicity evaluations of LPM3480392 in rats, a full µ-opioid receptor biased agonist” (Frontiers in Pharmacology, 2023).
Read-outs that look alike come from different tables or passages of the source.

Experiment: Toxicokinetics, plasma LPM3480392 after intravenous administration
Type: in vivo, Sprague Dawley (SD) rats
Conditions: for concentration at 2 min / AUC(0-t): Sprague-Dawley, rat, plasma; for concentration at 2 min: intravenous; for AUC(0-t): iv
Experimental: Blood samples from animals in LPM3480392 groups were collected at predose and 2 min, 30 min, 1 h and 4 h postdose of the 1st dosing on Days 1 and 28; at 2 min and 4 h postdose of the 2nd dosing on Days 1 and 28; at 2 min, 1 h and 4 h postdose the 3rd dosing on Days 1 and 28. Animals in control group were sampled at predose and 2 min postdose of the 1st dosing on Days 1 and 28. Approximately 0.36 mL of blood was collected from the jugular vein of surviving TK animals at each time point. Whole blood samples were anticoagulated with EDTA-K2 and centrifuged at 2°C–8°C and 1800 × g for 10 min. The harvested plasma was stored below −66°C before the analysis. LC-MS/MS methods (liquid chromatograph/mass spectrometer) were used to detect concentrations of LPM3480392 at each time point. TK parameters (AUC, Cmax, Tmax) were calculated by Phoenix WinNonlin (Pharsight) 8.2. The detection instruments include ultra-performance liquid chromatography (Waters, United States ACQUITY UPLC I -CLASS) and triple quadrupole tandem mass spectrometer (Waters, United States, Xevo TQ-S).

## Fc1ccc([C@]2(CCNCc3cccc(Cl)c3)CCO[C@]3(CCOC3)C2)nc1 [LPM3480392]
0.6–2.4 mg/kg/day
  Accumulation after 28-day repeated dosing: No accumulation
  Gender difference of mean AUC0–12h in plasma: no apparent gender difference
Both sexes, 0.6 mg/kg/day, 0.6 mg/kg/day iv, 1st dosing day, F + M, read-out: C2min (The 1st dosing)
  concentration at 2 min: 88.3 ± 18.8 ng/mL
Both sexes, 0.6 mg/kg/day, 0.6 mg/kg/day iv, 1st dosing day, F + M, read-out: C2min (The 2nd dosing)
  concentration at 2 min: 68.4 ± 12.8 ng/mL
Both sexes, 0.6 mg/kg/day, 0.6 mg/kg/day iv, 1st dosing day, F + M, read-out: C2min (The 3rd dosing)
  concentration at 2 min: 60.1 ± 10.4 ng/mL
Both sexes, 0.6 mg/kg/day, 0.6 mg/kg/day iv, 28th dosing day, F + M, read-out: C2min (The 1st dosing)
  concentration at 2 min: 87.2 ± 14.7 ng/mL
Both sexes, 0.6 mg/kg/day, 0.6 mg/kg/day iv, 28th dosing day, F + M, read-out: C2min (The 2nd dosing)
  concentration at 2 min: 75.4 ± 10.2 ng/mL
Both sexes, 0.6 mg/kg/day, 0.6 mg/kg/day iv, 28th dosing day, F + M, read-out: C2min (The 3rd dosing)
  concentration at 2 min: 73.9 ± 10.9 ng/mL
Both sexes, 1.2 mg/kg/day, 1.2 mg/kg/day iv, 1st dosing day, F + M, read-out: C2min (The 1st dosing)
  concentration at 2 min: 175 ± 18.6 ng/mL
Both sexes, 1.2 mg/kg/day, 1.2 mg/kg/day iv, 1st dosing day, F + M, read-out: C2min (The 2nd dosing)
  concentration at 2 min: 155 ± 29.4 ng/mL
Both sexes, 1.2 mg/kg/day, 1.2 mg/kg/day iv, 1st dosing day, F + M, read-out: C2min (The 3rd dosing)
  concentration at 2 min: 148 ± 27 ng/mL
Both sexes, 1.2 mg/kg/day, 1.2 mg/kg/day iv, 28th dosing day, F + M, read-out: C2min (The 1st dosing)
  concentration at 2 min: 179 ± 23.2 ng/mL
Both sexes, 1.2 mg/kg/day, 1.2 mg/kg/day iv, 28th dosing day, F + M, read-out: C2min (The 2nd dosing)
  concentration at 2 min: 140 ± 31 ng/mL
Both sexes, 1.2 mg/kg/day, 1.2 mg/kg/day iv, 28th dosing day, F + M, read-out: C2min (The 3rd dosing)
  concentration at 2 min: 149 ± 24.6 ng/mL
Both sexes, 2.4 mg/kg/day, 2.4 mg/kg/day iv, 1st dosing day, F + M, read-out: C2min (The 1st dosing)
  concentration at 2 min: 330 ± 27.6 ng/mL
Both sexes, 2.4 mg/kg/day, 2.4 mg/kg/day iv, 1st dosing day, F + M, read-out: C2min (The 2nd dosing)
  concentration at 2 min: 290 ± 23.1 ng/mL
Both sexes, 2.4 mg/kg/day, 2.4 mg/kg/day iv, 1st dosing day, F + M, read-out: C2min (The 3rd dosing)
  concentration at 2 min: 229 ± 43.6 ng/mL
Both sexes, 2.4 mg/kg/day, 2.4 mg/kg/day iv, 28th dosing day, F + M, read-out: C2min (The 1st dosing)
  concentration at 2 min: 351 ± 61.7 ng/mL
Both sexes, 2.4 mg/kg/day, 2.4 mg/kg/day iv, 28th dosing day, F + M, read-out: C2min (The 2nd dosing)
  concentration at 2 min: 323 ± 89.2 ng/mL
Both sexes, 2.4 mg/kg/day, 2.4 mg/kg/day iv, 28th dosing day, F + M, read-out: C2min (The 3rd dosing)
  concentration at 2 min: 320 ± 34.2 ng/mL
Both sexes, 0.6 mg/kg/day, 0.6 mg/kg/day iv, 1st dosing day, F + M, read-out: AUC0–12h
  AUC(0-t): 315 ± 43.7 ng·h/mL
Both sexes, 0.6 mg/kg/day, 0.6 mg/kg/day iv, 28th dosing day, F + M, read-out: AUC0–12h
  AUC(0-t): 349 ± 38.2 ng·h/mL
Both sexes, 0.6 mg/kg/day, female + male, 0.6 mg/kg/day, Day 1, read-out: Mean AUC0–12h
  AUC(0-t): 315 ng·h/mL
Both sexes, 0.6 mg/kg/day, female + male, 0.6 mg/kg/day, Day 28, read-out: Mean AUC0–12h
  AUC(0-t): 349 ng·h/mL
Both sexes, 1.2 mg/kg/day, 1.2 mg/kg/day iv, 1st dosing day, F + M, read-out: AUC0–12h
  AUC(0-t): 663 ± 114 ng·h/mL
Both sexes, 1.2 mg/kg/day, 1.2 mg/kg/day iv, 28th dosing day, F + M, read-out: AUC0–12h
  AUC(0-t): 680 ± 74.5 ng·h/mL
Both sexes, 1.2 mg/kg/day, female + male, 1.2 mg/kg/day, Day 1, read-out: Mean AUC0–12h
  AUC(0-t): 663 ng·h/mL
Both sexes, 1.2 mg/kg/day, female + male, 1.2 mg/kg/day, Day 28, read-out: Mean AUC0–12h
  AUC(0-t): 680 ng·h/mL
Both sexes, 2.4 mg/kg/day, 2.4 mg/kg/day iv, 1st dosing day, F + M, read-out: AUC0–12h
  AUC(0-t): 1250 ± 93.6 ng·h/mL
Both sexes, 2.4 mg/kg/day, 2.4 mg/kg/day iv, 28th dosing day, F + M, read-out: AUC0–12h
  AUC(0-t): 1490 ± 169 ng·h/mL
Both sexes, 2.4 mg/kg/day, female + male, 2.4 mg/kg/day, Day 1, read-out: Mean AUC0–12h
  AUC(0-t): 1250 ng·h/mL
Both sexes, 2.4 mg/kg/day, female + male, 2.4 mg/kg/day, Day 28, read-out: Mean AUC0–12h
  AUC(0-t): 1490 ng·h/mL
Female + male, 1.2 mg/kg/day
  Mean AUC0–12h ratio, Day 28 and Day 1: 1.0
Female + male, 2.4 mg/kg/day
  Mean AUC0–12h ratio, Day 28 and Day 1: 1.2
female, 0.6 mg/kg/day, 0.6 mg/kg/day iv, 1st dosing day, F, read-out: C2min (The 1st dosing)
  concentration at 2 min: 78.4 ± 10.9 ng/mL
female, 0.6 mg/kg/day, 0.6 mg/kg/day iv, 1st dosing day, F, read-out: C2min (The 2nd dosing)
  concentration at 2 min: 66.2 ± 12.4 ng/mL
female, 0.6 mg/kg/day, 0.6 mg/kg/day iv, 1st dosing day, F, read-out: C2min (The 3rd dosing)
  concentration at 2 min: 55.5 ± 8.94 ng/mL
female, 0.6 mg/kg/day, 0.6 mg/kg/day iv, 28th dosing day, F, read-out: C2min (The 1st dosing)
  concentration at 2 min: 90.1 ± 8.8 ng/mL
female, 0.6 mg/kg/day, 0.6 mg/kg/day iv, 28th dosing day, F, read-out: C2min (The 2nd dosing)
  concentration at 2 min: 73 ± 12.6 ng/mL
female, 0.6 mg/kg/day, 0.6 mg/kg/day iv, 28th dosing day, F, read-out: C2min (The 3rd dosing)
  concentration at 2 min: 68.5 ± 11.8 ng/mL
female, 1.2 mg/kg/day, 1.2 mg/kg/day iv, 1st dosing day, F, read-out: C2min (The 1st dosing)
  concentration at 2 min: 181 ± 24.8 ng/mL
